Reference: patent US12458587B2, “Hypoallergenic composition for skin regeneration or skin soothing, containing culture product or extract of Aureobasidium pullulans strain” (AMOREPACIFIC CORPORATION, priority 2018, dated 2025)

Legend:
[1] = tested on: keratinocytes (HaCaT); assay: Scratch wound healing on keratinocyte monolayer (skin-regenerating effect); type: cell-based, human; details: relative to scratched area as 100%, 12 ppm (positive control 10% FBS), n=4
Method: A linear scratch wound was made on a monolayer of keratinocytes (HaCaT). The HaCaT cells were cultured using Dulbecco's modified Eagle's medium (DMEM, Lonza, USA) containing 10% fetal bovine serum (FBS, GIBCO, USA) in a 5% CO2 incubator at 37° C. Immediately after the application of a scratch, the medium was replaced with a fresh medium containing the sample to be tested and the effect of the test sample on skin regeneration was investigated. The regeneration of the cells on the scratched area was imaged with a time-lapse microscope for 36 hours with 30-minute intervals and wound healing area (%) was compared relative the scratched area (as 100%) (n=4 per group).

[2] = tested on: rabbit eye; details: 5%; cited from earlier work

| Substance | Wound healing area (%) 12 hours later [1] | Wound healing area (%) 24 hours later [1] | Wound healing area (%) 36 hours later [1] | Wound healing area (%) Immediately after scratching [1] | eye irritation in the Draize rabbit eye test [2] |
| --- | --- | --- | --- | --- | --- |
| Madecassoside | 33.56% | 54.56% | 62.48% | 0% |  |
| sodium magnesium lauryl-myristyl-6-ethoxy-sulfate [Texapon Asv®] |  |  |  |  | moderate irritation |
